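The compound was tested at five concentrations on cells cultured in 96-well plates, with a 48-hour exposure period. GI50 = concentration required for 50% inhibition of growth.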 Activity calls are given as the source filed them. No stated cut-off is given here; in the data, active = GI50 up to about 1.1 µM and inactive = higher.

Assay in all cases: growth of human tumour cells (NCI), 48 h
Assay [1] relates to MDA-MB-435.
The subject of assay [2] is MOLT-4.
Assay [3] concerns EKVX.
For assay [4], the system named is SF-539.
Assay [5] concerns NCI-H226.
Assay [6] deals with U-251.
Assay [7] has as its system BT-549.
Assay [8] deals with UO-31.
The test system of assay [9] is UACC-62.
Assay [10] relates to TK-10.
For assay [11], the system named is T47D.
For assay [12], the system named is MDA-N.
Assay [13] has as its system ACHN.
Assay [14] has as its system SK-MEL-2.
For assay [15], the system named is SNB-19.
Assay [16] has as its system Hs-578T.
The test system of assay [17] is 786-0.
Assay [18] relates to SN12C.
Assay [19] has as its system HCC 2998.
The test system of assay [20] is SW-620.

As to `Cc1nc2c(Cl)cc(Cl)cc2c2c1CCO2`, the GI50 in [1] is > 100 µM (inactive); in assay [2], 75.3 µM (inactive); in assay [3], 54 µM (inactive); in assay [4], > 100 µM (inactive); in assay [5], > 100 µM (inactive); in assay [6], > 100 µM (inactive). In addition, the GI50 was > 100 µM (inactive) in assay [7]; 67 µM (inactive) in assay [8]; > 100 µM (inactive) in assay [9]; > 100 µM (inactive) in assay [10]; > 100 µM (inactive) in assay [11]; > 100 µM (inactive) in [12]. The GI50 in [13], in assay [14], in assay [15], in [16], in assay [17] and in assay [18] was > 100 µM (inactive) throughout. Moreover, the GI50 in assay [19] and in [20] was > 100 µM (inactive) in each case.

`O=C1CSC(c2ccc(Cl)cc2)N1c1ccc(-n2c(-c3ccccc3)nc3ccccc3c2=O)cc1` (stereo not given): the GI50 in assay [1] is 56 µM (inactive); in [2], 21.2 µM (inactive); in [3] it was > 100 µM (inactive); in assay [4], > 100 µM (inactive); in assay [5], > 100 µM (inactive); in [6] it was 88.5 µM (inactive). In addition, the GI50 in [7] was > 100 µM (inactive); in [8] it was 5.48 µM (inactive); in [9], 19.8 µM (inactive); in assay [10] it was > 100 µM (inactive); in [11], 8.36 µM (inactive); in assay [12], > 100 µM (inactive). Also, the GI50 in assay [13] is > 100 µM (inactive); in assay [14], > 100 µM (inactive); in assay [15], > 100 µM (inactive); in assay [16], 52.7 µM (inactive); in assay [17], 87.1 µM (inactive); in [18], > 100 µM (inactive). In addition, the GI50 in assay [19] was 34.5 µM (inactive); in [20], 76 µM (inactive).

For the compound `C=CCN(c1cc(OC)c2[nH]c(C(=O)OCC)c(C)c2c1[N+](=O)[O-])S(C)(=O)=O`, the GI50 is 24.7 µM (inactive) in assay [1]; 12.6 µM (inactive) in assay [2]; 18.5 µM (inactive) in assay [3]; 33.6 µM (inactive) in assay [4]; 1.04 µM (active) in assay [5]; 16.1 µM (inactive) in [6]. The GI50 is 22.1 µM (inactive) in assay [7]; 21.5 µM (inactive) in assay [8]; 26.1 µM (inactive) in assay [9]; 54.1 µM (inactive) in [10]; 15.2 µM (inactive) in [11]; 18.1 µM (inactive) in [12]. Besides, the GI50 in assay [13] was 26.1 µM (inactive); in assay [14], 25.1 µM (inactive); in [15] it was 28.4 µM (inactive); in [16], 17.8 µM (inactive); in [17], 19 µM (inactive); in assay [18], 19.6 µM (inactive). Also, the GI50 in [19] is 45.5 µM (inactive); in assay [20] it was 34.3 µM (inactive).

Consider `Nc1ncnc2c1ccn2C1OC2COP(=O)(O)OC2C1O` (stereo not given), for which the GI50 is 0.273 µM (active) in assay [1]; 0.681 µM (active) in [2]; 2.64 µM (inactive) in [3]; 3.51 µM (inactive) in [4]; 2.9 µM (inactive) in [5]; 0.31 µM (active) in assay [6]. Besides, the GI50 is 0.482 µM (active) in assay [7]; 0.196 µM (active) in assay [8]; 0.0914 µM (active) in [9]; 0.25 µM (active) in assay [10]; 0.989 µM (active) in [11]; 0.379 µM (active) in [12]. In addition, the GI50 was 0.0412 µM (active) in [13]; 0.458 µM (active) in assay [14]; 1.61 µM (inactive) in assay [15]; 0.502 µM (active) in assay [16]; 0.281 µM (active) in assay [17]; 0.207 µM (active) in assay [18]. For the same compound, the GI50 in assay [19] was 0.942 µM (active); in [20] it was 0.261 µM (active).

With `C[C@]12CC[C@H]3[C@@H](CC[C@]4(O)C[C@@H](O)CC[C@]34C=O)[C@@]1(O)CC[C@@H]2C1=CC(=O)OC1` [STROPHANTHIDIN], the GI50 in assay [1] is 0.522 µM (active); in [2], 0.112 µM (active); in assay [3], 0.361 µM (active); in assay [4], 0.294 µM (active); in assay [5], 1.23 µM (inactive); in assay [6], 0.698 µM (active). The GI50 in [7] is 0.355 µM (active); in assay [8], 0.444 µM (active); in assay [9], 1.52 µM (inactive); in assay [10], 0.465 µM (active); in assay [11], 0.697 µM (active); in [12] it was 0.372 µM (active). Further, the GI50 was 0.142 µM (active) in [13]; 1.61 µM (inactive) in assay [14]; 1.58 µM (inactive) in assay [15]; 0.682 µM (active) in [16]; 0.321 µM (active) in assay [17]; 0.418 µM (active) in [18]. Moreover, the GI50 in assay [19] is 4.27 µM (inactive); in assay [20] it was 0.528 µM (active).

Consider `CC[C@@]1(O)C(=O)OCc2c1cc1n(c2=O)Cc2c-1nc1ccccc1c2/C=N\NC(=O)CN`, for which the GI50 in [1] was 1.61 µM (inactive); in assay [2], < 0.0316 µM (active); in assay [3], 12 µM (inactive); in [4] it was 0.0258 µM (active); in [5] it was 0.188 µM (active); in [6], 0.135 µM (active). Besides, the GI50 is 0.627 µM (active) in assay [7]; 0.33 µM (active) in [8]; 0.0333 µM (active) in [9]; 26.1 µM (inactive) in assay [10]; 0.0486 µM (active) in assay [11]; 1.57 µM (inactive) in [12]. In addition, the GI50 in assay [13] was < 0.0197 µM (active); in [14], 23.8 µM (inactive); in [15], < 0.0397 µM (active); in [16], > 40.5 µM (inactive); in [17], 0.0908 µM (active); in [18] it was 0.0458 µM (active). Moreover, the GI50 in assay [19] was 2.21 µM (inactive); in assay [20], 0.315 µM (active).

Consider `CC(=O)OC1[C@@H](OC(C)=O)CN(OCc2ccccc2)C[C@H]1OC(C)=O` (stereo not given in full), for which the GI50 in [1], in [2], in [3], in [4], in [5] and in assay [6] was > 100 µM (inactive) in each case. In addition, the GI50 in [7], in assay [8], in [9], in assay [10], in assay [11] and in [12] was > 100 µM (inactive) in each case. Further, the GI50 in assay [13], in assay [14], in [15], in assay [16], in [17] and in assay [18] was > 100 µM (inactive) throughout. The GI50 in assay [19] and in assay [20] was > 100 µM (inactive) in each case.

Consider `COc1ccc(/N=N/C(=N\c2ccc(Cl)cc2)c2ccc(N(CCC#N)CCC#N)cc2)cc1`, for which the GI50 in assay [1] was 7.23 µM (inactive); in assay [2], 15.3 µM (inactive); in assay [3] it was 51.4 µM (inactive); in assay [4], > 100 µM (inactive); in assay [5], > 100 µM (inactive); in [6], 41.4 µM (inactive). The GI50 was 12.6 µM (inactive) in [7]; 5.06 µM (inactive) in [8]; 1.49 µM (inactive) in assay [9]; 38.7 µM (inactive) in assay [10]; 1.71 µM (inactive) in assay [11]; 37.4 µM (inactive) in assay [12]. The GI50 was 19.9 µM (inactive) in [13]; 0.851 µM (active) in assay [14]; > 100 µM (inactive) in assay [15]; 87.9 µM (inactive) in assay [16]; 83.8 µM (inactive) in assay [17]; > 100 µM (inactive) in [18]. The GI50 in assay [19] was 4.91 µM (inactive); in assay [20] it was 24.7 µM (inactive).
